Active and inactive are the calls of the source.
Legend:
[1] = target: Voltage-gated inwardly rectifying potassium channel KCNH2 (Homo sapiens, UniProt Q12809); details: Potency;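 further: confirmatory quantitative high-throughput screen measuring inhibition of hERG channel activity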
[2] = THP-1 cell cytotoxicity, dose response, cytotoxicity control for non-replicating M. tuberculosis project (AID 489025); format: functional
[3] = HepG2 cell cytotoxicity, dose response, cytotoxicity control for non-replicating M. tuberculosis project (AID 489018); format: functional; details: Mycobacterium tuberculosis
[4] = Vero E6 cell cytotoxicity, dose response, cytotoxicity control for non-replicating M. tuberculosis project, secondary assay (AID 492998); format: functional, VeroE6; details: Vero C1008
[5] = cytotoxicity in HEK-293T cells, dose response, cytotoxicity control for TCR NF-kB inhibitor project, luminescence, T-cell screen hits (AID 489026); format: functional, cell-based;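 further: cells exposed to compound about 14 hours before the viability readout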
cells = format: functional
Cytochrome P450 3A4 = Cytochrome P450 3A4 (Homo sapiens, UniProt P08684); details: Potency;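 further: confirmatory qHTS run detecting inhibitors and substrates of CYP3A4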
[6] = target: T1, Short transient receptor potential channel 4 (Mus musculus, UniProt Q9QUQ5); assay: mouse TRPC4 channel activators, dose response, cell-based, HEK293 TRPC4/mu-opioid, Fluo-4 calcium (AID 434937); format: functional
T1 sequence (Q9QUQ5 whole entry): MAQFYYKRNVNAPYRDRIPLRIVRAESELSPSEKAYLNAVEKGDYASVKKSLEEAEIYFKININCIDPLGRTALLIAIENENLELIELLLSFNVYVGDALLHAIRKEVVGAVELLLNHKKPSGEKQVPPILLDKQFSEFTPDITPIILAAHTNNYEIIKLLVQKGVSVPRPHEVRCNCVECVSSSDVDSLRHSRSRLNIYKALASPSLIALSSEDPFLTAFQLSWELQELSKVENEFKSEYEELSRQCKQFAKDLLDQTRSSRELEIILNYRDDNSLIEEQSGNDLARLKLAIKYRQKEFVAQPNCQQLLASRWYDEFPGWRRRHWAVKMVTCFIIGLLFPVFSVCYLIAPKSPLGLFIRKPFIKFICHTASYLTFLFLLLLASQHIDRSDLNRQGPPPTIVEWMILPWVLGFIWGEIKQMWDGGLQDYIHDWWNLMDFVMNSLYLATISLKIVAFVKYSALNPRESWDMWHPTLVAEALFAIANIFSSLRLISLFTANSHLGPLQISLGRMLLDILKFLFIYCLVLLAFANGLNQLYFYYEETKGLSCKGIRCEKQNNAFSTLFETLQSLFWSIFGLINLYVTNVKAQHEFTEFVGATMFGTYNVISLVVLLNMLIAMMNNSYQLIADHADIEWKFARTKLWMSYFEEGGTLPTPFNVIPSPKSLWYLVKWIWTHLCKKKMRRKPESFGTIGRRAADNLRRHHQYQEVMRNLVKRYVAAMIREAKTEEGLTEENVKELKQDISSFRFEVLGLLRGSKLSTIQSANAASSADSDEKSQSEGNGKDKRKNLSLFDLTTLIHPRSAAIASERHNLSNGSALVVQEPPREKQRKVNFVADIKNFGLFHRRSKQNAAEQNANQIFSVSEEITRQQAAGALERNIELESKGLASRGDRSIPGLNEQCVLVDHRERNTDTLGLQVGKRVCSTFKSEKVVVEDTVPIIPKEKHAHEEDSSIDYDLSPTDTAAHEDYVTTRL

P388/ADR = assay: cells; format: functional; details: Mus musculus
SN12K1 = assay: cells; format: functional; details: Homo sapiens
P388 = assay: cells; format: functional; details: Mus musculus
[7] = NIH-3T3 fibroblast cytotoxicity, dose response, cytotoxicity control, cell-based, fluorescence, Alamar Blue, secondary assay (AID 2327); format: functional;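 further: NIH-3T3 mouse fibroblasts cultured with fluconazole at 8 µg/mL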
[8] = C. albicans growth with fluconazole, confirmation, fluorescence, retest (AID 2467); format: functional, cell-based
[9] = target: T2, Endoribonuclease toxin MazF (Escherichia coli K-12, UniProt P0AE70); assay: MazF toxin RNase activators, dose response, biochemical, fluorescence, single-stranded RNA substrate, uHTS hits (AID 588481); format: functional
T2 sequence (P0AE70 whole entry): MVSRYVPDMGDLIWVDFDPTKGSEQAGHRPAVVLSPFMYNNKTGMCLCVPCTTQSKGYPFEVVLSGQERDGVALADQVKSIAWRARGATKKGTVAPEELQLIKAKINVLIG

[10] = target: T2, Endoribonuclease toxin MazF; assay: fluorescent RNA oligo signal without MazF, dose response, counter-screen for MazEF activator project, biochemical, fluorescence, single-stranded RNase substrate (AID 588502); format: functional
[11] = tested on: Streptococcus sp. 'group A'; assay: growth inhibition of control SK(-) GAS strain, dose response, counter-screen for streptokinase expression inhibitor project, luminescence, kanamycin, BacTiterGlo, confirmation (AID 1900); format: functional, organism-based
Streptokinase A = target: T3, Streptokinase A (Streptococcus pyogenes serotype M1, UniProt P10520); assay: S. pyogenes streptokinase expression inhibitors, potency, dose response, plasminogen activation absorbance, OD405 (AID 1914); format: functional, Streptococcus pyogenes M1 GAS;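 further: secreted streptokinase activity via plasminogen activation per viability signal from cell pellet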
T3 sequence (P10520 whole entry): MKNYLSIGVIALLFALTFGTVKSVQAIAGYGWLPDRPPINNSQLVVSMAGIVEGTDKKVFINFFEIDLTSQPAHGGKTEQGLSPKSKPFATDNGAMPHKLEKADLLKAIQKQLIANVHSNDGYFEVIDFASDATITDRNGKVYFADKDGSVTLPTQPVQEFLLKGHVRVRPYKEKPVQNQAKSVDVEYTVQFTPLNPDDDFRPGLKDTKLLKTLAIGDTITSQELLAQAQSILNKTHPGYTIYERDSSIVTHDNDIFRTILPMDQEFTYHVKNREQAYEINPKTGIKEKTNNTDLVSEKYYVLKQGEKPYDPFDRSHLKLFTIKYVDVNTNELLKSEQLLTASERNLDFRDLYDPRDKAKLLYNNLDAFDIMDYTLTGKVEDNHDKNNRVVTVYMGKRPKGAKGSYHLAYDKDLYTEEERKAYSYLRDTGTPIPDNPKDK

Streptococcus = assay: Group A Streptococcus viability loss, dose response, counter-screen for streptokinase expression inhibitor project, luminescence, BacTiterGlo (AID 1915); format: functional, organism-based;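 further: potency for reduction of bacterial viability or growth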
[12] = microbe, parasite or virus in culture; format: functional; details: Mycobacterium tuberculosis
[13] = target: T4, Replicative DNA helicase DnaB (Mycobacterium tuberculosis, UniProt P9WMR3); assay: DnaB intein splicing inhibitors, dose response, biochemical, cell-free fluorescence (AID 449749); format: functional
T4 sequence (P9WMR3 whole entry): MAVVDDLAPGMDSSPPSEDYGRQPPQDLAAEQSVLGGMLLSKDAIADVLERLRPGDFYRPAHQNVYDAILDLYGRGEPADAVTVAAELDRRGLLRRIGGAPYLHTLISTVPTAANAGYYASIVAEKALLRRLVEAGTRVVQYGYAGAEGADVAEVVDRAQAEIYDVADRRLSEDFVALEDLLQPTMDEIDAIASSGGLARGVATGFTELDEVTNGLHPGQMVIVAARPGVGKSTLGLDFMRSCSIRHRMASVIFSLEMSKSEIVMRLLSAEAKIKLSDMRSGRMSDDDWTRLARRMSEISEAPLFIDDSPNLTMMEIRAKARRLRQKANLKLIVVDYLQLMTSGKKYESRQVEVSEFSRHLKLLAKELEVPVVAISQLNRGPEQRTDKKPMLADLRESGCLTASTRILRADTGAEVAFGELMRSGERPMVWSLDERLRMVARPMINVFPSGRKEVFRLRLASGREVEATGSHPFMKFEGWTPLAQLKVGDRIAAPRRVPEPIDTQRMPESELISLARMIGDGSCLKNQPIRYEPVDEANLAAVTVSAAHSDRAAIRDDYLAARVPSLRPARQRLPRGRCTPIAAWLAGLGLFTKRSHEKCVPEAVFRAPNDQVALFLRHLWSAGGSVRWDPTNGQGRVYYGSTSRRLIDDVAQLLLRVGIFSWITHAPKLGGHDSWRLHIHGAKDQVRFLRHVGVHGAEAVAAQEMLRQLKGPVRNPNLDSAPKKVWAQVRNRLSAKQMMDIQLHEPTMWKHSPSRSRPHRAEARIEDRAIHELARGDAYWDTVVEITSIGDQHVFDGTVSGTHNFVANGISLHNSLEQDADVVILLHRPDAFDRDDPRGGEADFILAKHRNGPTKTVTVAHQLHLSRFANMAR

Protein RecA = target: T5, Protein RecA (Mycobacterium tuberculosis, UniProt P9WHJ3); assay: Fluorescence Cell-Free Homogeneous Dose Retest to Identify Inhibitors of RecA-Intein Splicing Activity. [Related pubchem assays (depositor defined):AID2097, AID2223, AID489010, AID492950]; format: functional
T5 sequence (P9WHJ3 whole entry): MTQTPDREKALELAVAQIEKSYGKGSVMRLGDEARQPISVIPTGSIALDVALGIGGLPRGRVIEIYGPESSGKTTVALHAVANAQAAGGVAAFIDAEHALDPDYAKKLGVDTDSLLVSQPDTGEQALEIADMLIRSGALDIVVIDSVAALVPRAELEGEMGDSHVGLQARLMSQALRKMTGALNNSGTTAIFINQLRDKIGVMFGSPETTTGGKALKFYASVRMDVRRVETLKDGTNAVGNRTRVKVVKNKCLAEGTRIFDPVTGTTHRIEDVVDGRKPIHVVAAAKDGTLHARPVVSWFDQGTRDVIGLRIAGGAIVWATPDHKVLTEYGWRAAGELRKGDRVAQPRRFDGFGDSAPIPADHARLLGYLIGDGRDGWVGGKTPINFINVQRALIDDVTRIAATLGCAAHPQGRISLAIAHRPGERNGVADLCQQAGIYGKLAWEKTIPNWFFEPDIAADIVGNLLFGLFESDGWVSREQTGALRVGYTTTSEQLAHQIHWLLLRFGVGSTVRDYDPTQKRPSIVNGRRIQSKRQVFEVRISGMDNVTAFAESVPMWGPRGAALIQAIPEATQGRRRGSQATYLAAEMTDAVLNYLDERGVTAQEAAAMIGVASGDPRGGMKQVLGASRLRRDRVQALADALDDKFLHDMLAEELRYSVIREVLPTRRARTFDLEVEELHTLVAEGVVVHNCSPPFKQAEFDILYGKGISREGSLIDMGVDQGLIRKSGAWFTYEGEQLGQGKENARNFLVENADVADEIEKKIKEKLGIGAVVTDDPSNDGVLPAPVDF

[14] = target: T6, High affinity choline transporter 1 (Homo sapiens, UniProt Q9GZV3); assay: CHT inhibitors, dose response, cell-based, 5-point CRC, membrane potential dye (AID 504840); format: functional
T6 sequence (Q9GZV3 whole entry): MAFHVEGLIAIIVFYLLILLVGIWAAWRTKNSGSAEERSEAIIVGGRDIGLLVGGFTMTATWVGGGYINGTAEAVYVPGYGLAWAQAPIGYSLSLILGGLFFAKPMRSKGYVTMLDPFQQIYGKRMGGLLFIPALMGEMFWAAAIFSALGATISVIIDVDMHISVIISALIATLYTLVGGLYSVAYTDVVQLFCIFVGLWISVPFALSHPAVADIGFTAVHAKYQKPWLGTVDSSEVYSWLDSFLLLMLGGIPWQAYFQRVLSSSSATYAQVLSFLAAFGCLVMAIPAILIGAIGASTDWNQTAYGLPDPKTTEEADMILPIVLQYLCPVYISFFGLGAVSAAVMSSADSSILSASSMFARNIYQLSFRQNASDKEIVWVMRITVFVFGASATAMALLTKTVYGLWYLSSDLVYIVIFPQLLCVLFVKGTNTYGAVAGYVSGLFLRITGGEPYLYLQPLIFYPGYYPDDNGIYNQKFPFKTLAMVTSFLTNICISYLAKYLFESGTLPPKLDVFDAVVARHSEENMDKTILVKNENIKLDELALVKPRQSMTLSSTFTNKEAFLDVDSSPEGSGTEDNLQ

Chain of Voltage-gated inwardly rectifying potassium channel KCNH2 (Q12809 whole entry): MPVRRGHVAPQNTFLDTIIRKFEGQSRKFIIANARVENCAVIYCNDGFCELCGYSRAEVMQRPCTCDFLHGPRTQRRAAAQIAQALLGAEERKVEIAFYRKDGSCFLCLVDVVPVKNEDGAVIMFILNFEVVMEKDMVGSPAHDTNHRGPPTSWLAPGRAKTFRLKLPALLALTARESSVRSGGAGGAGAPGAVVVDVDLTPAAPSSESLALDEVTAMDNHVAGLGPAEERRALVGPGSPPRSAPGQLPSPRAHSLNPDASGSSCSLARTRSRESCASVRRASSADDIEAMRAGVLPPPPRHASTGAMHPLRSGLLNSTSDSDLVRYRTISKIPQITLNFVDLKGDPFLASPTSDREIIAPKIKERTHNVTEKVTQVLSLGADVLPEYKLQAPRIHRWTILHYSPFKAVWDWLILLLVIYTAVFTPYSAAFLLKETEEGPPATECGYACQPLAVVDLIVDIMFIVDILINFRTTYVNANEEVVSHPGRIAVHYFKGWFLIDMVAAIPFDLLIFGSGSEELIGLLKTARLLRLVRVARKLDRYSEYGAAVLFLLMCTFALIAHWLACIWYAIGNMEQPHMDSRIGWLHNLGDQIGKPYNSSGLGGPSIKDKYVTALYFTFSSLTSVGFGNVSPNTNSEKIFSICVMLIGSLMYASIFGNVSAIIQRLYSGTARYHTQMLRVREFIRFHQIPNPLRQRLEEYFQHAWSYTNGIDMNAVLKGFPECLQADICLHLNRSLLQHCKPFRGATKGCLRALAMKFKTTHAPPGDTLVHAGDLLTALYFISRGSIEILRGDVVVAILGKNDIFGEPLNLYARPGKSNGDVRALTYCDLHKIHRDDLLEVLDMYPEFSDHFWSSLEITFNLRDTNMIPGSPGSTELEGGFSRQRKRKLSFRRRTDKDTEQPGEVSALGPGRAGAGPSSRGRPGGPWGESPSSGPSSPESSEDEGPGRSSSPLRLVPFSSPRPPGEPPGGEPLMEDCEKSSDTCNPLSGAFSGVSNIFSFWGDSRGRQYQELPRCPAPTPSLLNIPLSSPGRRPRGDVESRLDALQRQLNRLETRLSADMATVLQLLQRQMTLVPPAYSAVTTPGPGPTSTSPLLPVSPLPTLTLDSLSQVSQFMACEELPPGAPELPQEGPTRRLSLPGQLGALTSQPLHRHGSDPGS
Chain of Cytochrome P450 3A4 (P08684 whole entry): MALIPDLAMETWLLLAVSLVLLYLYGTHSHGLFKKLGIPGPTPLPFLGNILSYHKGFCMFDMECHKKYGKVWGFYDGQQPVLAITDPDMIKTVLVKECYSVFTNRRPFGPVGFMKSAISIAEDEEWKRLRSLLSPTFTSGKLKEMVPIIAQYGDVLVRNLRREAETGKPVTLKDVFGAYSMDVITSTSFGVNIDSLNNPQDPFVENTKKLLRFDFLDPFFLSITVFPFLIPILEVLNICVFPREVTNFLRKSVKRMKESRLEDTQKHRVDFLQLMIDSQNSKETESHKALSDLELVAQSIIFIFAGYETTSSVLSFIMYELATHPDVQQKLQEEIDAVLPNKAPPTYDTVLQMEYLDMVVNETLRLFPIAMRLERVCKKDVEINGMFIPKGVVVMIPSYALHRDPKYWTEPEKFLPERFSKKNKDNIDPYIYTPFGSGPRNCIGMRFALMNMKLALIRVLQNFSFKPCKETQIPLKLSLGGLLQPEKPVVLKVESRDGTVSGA

## ClC1=C(Cl)C2(Cl)C3C4C=CC(C4)C3C1(Cl)C2(Cl)Cl (stereo unspecified) [ALDRIN]
[1]
  AC50: 20 µM (inconclusive)

## COc1cc(C(=O)N/N=C/c2cc([N+](=O)[O-])cs2)cc(OC)c1OC
[2]
  CC50: 0.724 µM (active)
[3]
  CC50: > 20 µM (active)
[4]
  CC50: 5.03 µM (active)
[5]
  IC50: > 80 µM (inactive)
cells
  IC50: 0.87 µM (active)

## CCCCCCCC/C=C\CCCCCCCC(=O)N(CCO)CCO
Cytochrome P450 3A4
  AC50: 12.6 µM (inconclusive)
[1]
  AC50: 31.6 µM (inconclusive)

## Cc1cccc(C(=O)OC2CCCN(C)C2)c1C (stereo unspecified)
[6]
  EC50: 0.841 µM (active)

## Nc1nc2[nH]c(=O)cnc2c(=O)[nH]1 [ISOXANTHOPTERIN]
P388/ADR
  GI50: > 125 µM (inactive)
SN12K1
  GI50: > 125 µM (inactive)
P388
  GI50: > 125 µM (inactive)
[1]
  AC50: 17.8 µM (inconclusive)

## CC(C)c1ccc(C2=C(O)C(=O)c3ccccc3C2=O)cc1
[7]
  EC50: 67.1 µM (active)
[8]
  EC50: 1.11 µM (active)
[4]
  CC50: 16.5 µM (active)

## COc1cccc(Nc2nc(-c3ccccc3O)nc3ccccc23)c1
[9]
  EC50: > 99 µM (inactive)
[10]
  EC50: 40.7 µM (inactive)

## CCOC(=O)c1ncn2c1[C@@H]1CCCN1C(=O)c1cc(OC)ccc1-2
[1]
  AC50: 25.1 µM (inconclusive)

## O=[N+]([O-])c1cc(Cl)cc(/C=N/Nc2nc3ccccc3s2)c1O
[11]
  EC50: 2.17 µM (active)
Streptokinase A
  EC50: > 150 µM (not active)
Streptococcus
  EC50: 7.64 µM (active)
[2]
  CC50: 10 µM (active)
[3]
  CC50: 16.4 µM (active)
[4]
  CC50: 10.4 µM (active)
cells
  IC50: 2.82 µM (active)

## CN(C)C1(CNC(=O)Nc2ccc(Cl)c(Cl)c2)CCCCC1
[12]
  CC50: > 40 µM (active)
[6]
  EC50: 1.68 µM (active)

## O=C(CCl)NN=C(c1ccccc1)c1ccccc1
[12]
  CC50: 6.85 µM (active)
[13]
  AC50: 12.1 µM (active)
[9]
  EC50: 61.2 µM (inactive)
Protein RecA
  EC50: 2.71 µM (active)
[10]
  EC50: > 99 µM (inactive)

## Cc1cccc(OCC(O)Cn2c(=N)n(Cc3ccccc3)c3ccccc32)c1 (stereo unspecified)
[2]
  CC50: 23.3 µM (active)
[3]
  CC50: > 20 µM (active)
[14]
  IC50: 6.92 µM (active)

From ChEMBL document CHEMBL1201862, “PubChem BioAssay data set” (2004)
